Data reported in US20230278972A1, “SUBSTITUTED HALOALKYL SULFONANILIDE HERBICIDES” (FMC Corporation, priority 2020, published 2023).

Columns and labels:
Format in all cases: in vivo
[1] = tested on: ducksalad (Heteranthera limosa); assay: Test B1 flooded paddy test, ducksalad; settings: 250 g ai/ha, Flood, applied to paddy water, 2-leaf stage, visually evaluated after 10 to 14 days
Text: A dash (-) response means no test result.

[2] = tested on: ragweed (common ragweed, Ambrosia artemisiifolia); assay: Test A1 postemergence, ragweed; settings: for Ragweed plant response rating: postemergence; for Plant response rating, Ragweed: Postemergence
In short: (§1)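 Plants were grown in a loam soil/sand blend, with test chemicals formulated in a non-phytotoxic solvent mixture containing surfactant. Preemergence treatment (corn) was a directed soil spray at planting. Postemergence treatment was applied to plants 2 to 10 cm tall at the one- to two-leaf stage.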

[3] = tested on: Oat, Wild (wild oat, Avena fatua); assay: Test A1 postemergence, Oat, Wild; settings: for Oat, Wild plant response rating: postemergence; for Plant response rating, Oat, Wild: Postemergence
In short: as §1

corn (Zea mays) = assay: Test A1 preemergence, corn
In short: as §1

[4] = tested on: goosegrass (Eleusine indica); assay: Test A1 postemergence, goosegrass; settings: for Goosegrass plant response rating: postemergence; for Plant response rating, Goosegrass: Postemergence
In short: as §1

[5] = tested on: goosegrass (Eleusine indica); assay: Test A1 preemergence, goosegrass
In short: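 Test compounds were formulated in a non-phytotoxic solvent mixture containing a surfactant. For preemergence, seeds sown in a loam soil–sand blend received a directed soil spray. For postemergence, potted plants in the same soil, 2 to 10 cm tall at the one- to two-leaf stage, were sprayed.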

[6] = 31 g ai/ha, 0 to 100 scale (0 no effect, 100 complete control)
[7] = 125 g ai/ha, 0 to 100 scale (0 no effect, 100 complete control), 10 days
[8] = 125 g ai/ha, 0 to 100 scale, 0 no effect, 100 complete control
[9] = 125 g ai/ha, 0 to 100 scale (0 no effect, 100 complete control)
[10] = 31 g ai/ha, 0 to 100 scale (0 no effect, 100 complete control), 10 days

Row | SMILES | Plant response rating, Ducksalad (0 to 100 scale, 0 is no effect, 100 is complete control) [1] | Ragweed plant response rating [2, 6] | Plant response rating, Ragweed [2, 7] | Oat, Wild plant response rating [3, 6] | Plant response rating, Oat, Wild [3, 7] | Plant response rating, Corn (corn (Zea mays); [6]) | Plant response rating, Corn (corn (Zea mays); [8]) | Goosegrass plant response rating [4, 6] | Plant response rating, Goosegrass [4, 7] | Plant response rating, Goosegrass [5, 6] | Plant response rating, Goosegrass [5, 8] | Plant response rating, Ragweed ([2]; 125 g ai/ha, 0 to 100 scale) | Plant response rating, Oat, Wild ([3]; 125 g ai/ha, 0 to 100 scale) | Plant response rating, Goosegrass ([4]; 125 g ai/ha, 0 to 100 scale) | Plant response rating, Goosegrass [5, 9] | Plant response rating, Ragweed [2, 10] | Plant response rating, Oat, Wild [3, 10] | Plant response rating, Goosegrass [4, 10]
1 | Cc1cc(C)c(N2CCC3(CCC(C)CC3)C2=O)cc1NS(=O)(=O)C(F)(F)F (centres unmarked) [Compound 402] | 45 | 50 | 50 | 10 | 10 | 0 | 80 | 20 | 70 | 90 | 100 | – | – | – | – | – | – | –
2 | CCOC(=O)N(c1cc(C(=O)N2C[C@@H](C)O[C@H](C)C2)c(C)c(C)c1C)S(=O)(=O)C(F)(F)F (relative stereo) [Compound 374] | 85 | 60 | – | 0 | – | 20 | 40 | 0 | – | 60 | 100 | 80 | 10 | 90 | – | – | – | –
3 | Cc1cc(C)c(N2CC3(CCCCC3)CC2=O)cc1NS(=O)(=O)C(F)(F)F [Compound 392] | 65 | 30 | 70 | 0 | 0 | 10 | 10 | 0 | 0 | 40 | 100 | – | – | – | – | – | – | –
4 | CCc1cc(C)c(N(COC(=O)C(C)(C)C)S(=O)(=O)C(F)(F)F)cc1C1=NOC2CCCC12 (centres unmarked) [Compound 378] | 20 | 0 | – | 0 | – | 0 | 0 | 0 | – | 20 | 50 | 30 | 30 | 30 | – | – | – | –
5 | Cc1cc(Cl)c(NS(=O)(=O)C(F)(F)F)cc1N1CC2(CCCCC2)OC1=O [Compound 394] | 85 | 90 | 90 | 0 | 0 | 0 | 20 | 0 | 30 | 80 | 100 | – | – | – | – | – | – | –
6 | Cc1cc(C)c(C2=NOC(C(C)C)C2)cc1NS(=O)(=O)C(F)(F)F (centres unmarked) [Compound 381] | 50 | 0 | 50 | 0 | 20 | 0 | 70 | 0 | 50 | 30 | 100 | – | – | – | – | – | – | –
7 | Cc1cc(C)c(N2Cc3cccc(C)c3C2=O)cc1NS(=O)(=O)Cl [Compound 408] | 75 | 40 | 90 | 70 | 70 | 40 | 90 | 90 | 90 | 100 | – | – | – | – | 100 | – | – | –
8 | Cc1cc(C)c(C2=NOC3OCCCC23)cc1NS(=O)(=O)C(F)(F)F (centres unmarked) [Compound 372] | 65 | 40 | – | 0 | – | 0 | 10 | 0 | – | 90 | 100 | 80 | 10 | 80 | – | – | – | –
9 | CCOc1cccc2c1C(=O)N(c1cc(N(COC(=O)C(C)(C)C)S(=O)(=O)Cl)c(C)cc1C)C2 [Compound 414] | 40 | 40 | 70 | 0 | 0 | 0 | 10 | 0 | 0 | 0 | – | – | – | – | 0 | – | – | –
10 | Cc1cc(C)c(N(COC(=O)C(C)(C)C)S(=O)(=O)C(F)(F)F)cc1N1CCC2(CCC(C(F)(F)F)CC2)C1=O (centres unmarked) [Compound 403] | 15 | 0 | 50 | 0 | 30 | 0 | 10 | 0 | 50 | 0 | 0 | – | – | – | – | – | – | –
11 | Cc1cc(Cl)c(NS(=O)(=O)C(F)(F)F)cc1N1CCC2(CCCCC2)C1=O [Compound 393] | 95 | 60 | 70 | 0 | 10 | 0 | 80 | 0 | 70 | 100 | 100 | – | – | – | – | – | – | –
12 | Cc1c(NS(=O)(=O)C(F)(F)F)cc(C2=NOC3(CCCC3)C2)c(C)c1C [Compound 380] | 70 | 40 | 60 | 0 | 20 | 0 | 30 | 0 | 30 | 50 | 100 | – | – | – | – | – | – | –
13 | Cc1c(C2=NOC3(CCCC3)C2)cc(N(COC(=O)C(C)(C)C)S(=O)(=O)C(F)(F)F)c(C)c1C [Compound 382] | 25 | 20 | 40 | 0 | 0 | 0 | 0 | 0 | 0 | 0 | 30 | – | – | – | – | – | – | –
14 | COC1CCC2(CC1)CCN(c1cc(NS(=O)(=O)C(F)(F)F)c(C)cc1C)C2=O (centres unmarked) [Compound 398] | 95 | 20 | 80 | 0 | 10 | 0 | 60 | 50 | 90 | 100 | 100 | – | – | – | – | – | – | –
15 | CCOC(=O)N(c1cc(C2=NOC3CCCC23)c(CC)cc1C)S(=O)(=O)C(F)(F)F (centres unmarked) [Compound 379] | 60 | 20 | – | 0 | – | 0 | 0 | 10 | – | 20 | 90 | 40 | 20 | 60 | – | – | – | –
16 | Cc1cc(C)c(N(S(=O)(=O)C(F)(F)F)S(=O)(=O)C(F)(F)F)cc1N1CCC2(CCC(C(F)(F)F)CC2)C1=O (centres unmarked) [Compound 399] | 75 | 50 | 90 | 10 | 40 | 0 | 0 | 40 | 90 | 90 | 90 | – | – | – | – | – | – | –
17 | Cc1ccc(C2=NOC3CCCC23)cc1NS(=O)(=O)C(F)(F)F (centres unmarked) [Compound 377] | 15 | 20 | – | 0 | – | 0 | 0 | 0 | – | 0 | 20 | 30 | 0 | 0 | – | – | – | –
18 | CCOC(=O)N(c1cc(C(=O)N2CCSCC2)c(C)c(C)c1C)S(=O)(=O)C(F)(F)F [Compound 286] | 50 | – | – | – | – | 0 | 0 | – | – | 30 | 90 | 40 | 0 | 40 | – | 0 | 0 | 0
19 | Cc1c(C(=O)N2C[C@@H](C)O[C@H](C)C2)cc(N(COC(=O)C(C)(C)C)S(=O)(=O)C(F)(F)F)c(C)c1C (relative stereo) [Compound 373] | 85 | 50 | – | 0 | – | 0 | 20 | 0 | – | 30 | 100 | 80 | 10 | 70 | – | – | – | –
